PubChem BioAssay AID328 (DTP/NCI, 2004)
Values joined by “and” are separate entries in the source; they are usually repeats but may differ in a detail not shown here. Equal entries are not always repeated. Inconclusive results and toxic doses are left out. Rule for the calls: active = survival T/C of 150% or more; inactive = T/C below 125% in these data.

System: BDF1 mice, P388 leukemia ip, median survival T/C
Experiment: NCI In Vivo Anticancer Drug Screen. Data for tumor model P388 Leukemia (intraperitoneal) in B6D2F1 (BDF1) mice
Conditions: endpoint: median survival time, higher = longer survival
In short: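 Vehicle-dosed animals serve as the reference; survival of compound-dosed, tumour-implanted mice is divided by it.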

[1] = dose: 50.0 mg/kg/injection, schedule: Q01DX009 (ip), vehicle: saline with Tween-80
[2] = dose: 100.0 mg/kg/injection, schedule: Q01DX009 (ip), vehicle: saline with Tween-80
[3] = dose: 100.0 mg/kg/injection, schedule: Q04DX003 (ip), vehicle: saline with Tween-80
[4] = dose: 200.0 mg/kg/injection, schedule: Q01DX009 (ip), vehicle: saline with Tween-80
[5] = dose: 200.0 mg/kg/injection, schedule: Q04DX003 (ip), vehicle: saline with Tween-80
[6] = dose: 400.0 mg/kg/injection, schedule: Q04DX003 (ip), vehicle: saline with Tween-80
[7] = dose: 100.0 mg/kg/injection, schedule: Q04DX003 (ip), vehicle: saline
[8] = dose: 200.0 mg/kg/injection, schedule: Q04DX003 (ip), vehicle: saline
[9] = dose: 50.0 mg/kg/injection, schedule: Q04DX003 (ip), vehicle: saline
[10] = dose: 50.0 mg/kg/injection, schedule: Q01DX009 (ip), vehicle: Klucel (hydroxypropylcellulose) (HPC)
[11] = dose: 100.0 mg/kg/injection, schedule: Q01DX009 (ip), vehicle: Klucel (hydroxypropylcellulose) (HPC)
[12] = dose: 200.0 mg/kg/injection, schedule: Q01DX009 (ip), vehicle: Klucel (hydroxypropylcellulose) (HPC)
[13] = dose: 12.5 mg/kg/injection, schedule: Q01DX009 (ip), vehicle: saline
[14] = dose: 25.0 mg/kg/injection, schedule: Q01DX009 (ip), vehicle: saline with Tween-80

Measured: T/C

O[O][Ge]([c]1ccccc1)([c]1ccccc1)[c]1ccccc1
inactive: dose: 100.0 mg/kg/injection, schedule: Q01DX001 (ip), vehicle: Klucel (hydroxypropylcellulose) (HPC) 100 % of control | dose: 200.0 mg/kg/injection, schedule: Q01DX001 (ip), vehicle: Klucel (hydroxypropylcellulose) (HPC) 100 % of control | dose: 400.0 mg/kg/injection, schedule: Q01DX001 (ip), vehicle: Klucel (hydroxypropylcellulose) (HPC) 100 % of control

NC(=O)c1nc(-c2ccccc2)c(-c2ccccc2)[nH]c1=O
inactive: [1] 109 % of control | [2] 117 % of control | [3] 106 % of control | [4] 99 % of control | [5] 102 % of control | [6] 116 % of control

O=C1c2cccc(O)c2C(=O)c2c(OC3OC(CO)C(OC4OC(CO)C(O)C(O)C4O)C(O)C3O)cccc21 (stereo unspecified)
inactive: [7] 103 % of control | [8] 119 % of control | dose: 400.0 mg/kg/injection, schedule: Q04DX003 (ip), vehicle: saline 112 % of control

CCOC(=O)C(C)(Br)C(=O)OCC
inactive: dose: 25.0 mg/kg/injection, schedule: Q04DX003 (ip), vehicle: saline 109 % of control | [9] 100 % of control | [7] 113 % of control

C#CCOCC(CCl)OC(N)=O (stereo unspecified)
inactive: [1] 110 % of control | [2] 114 % of control | [7] 110 % of control | [4] 107 % of control | [8] 120 % of control

O=S1(=O)CCN(C2CCCC2)CC1
inactive: [10] 104 % of control | [11] 121 % of control | [12] 111 % of control

Cc1cc(C)c(-c2c(C)cc(C)c(C(=O)c3ccc([N+](=O)[O-])cc3)c2C)c(C)c1C(=O)c1ccc([N+](=O)[O-])cc1
inactive: dose: 3.0 mg/kg/injection, schedule: Q01DX009 (ip), vehicle: Klucel (hydroxypropylcellulose) (HPC) 100 % of control | dose: 6.0 mg/kg/injection, schedule: Q01DX009 (ip), vehicle: Klucel (hydroxypropylcellulose) (HPC) 100 % of control | dose: 12.0 mg/kg/injection, schedule: Q01DX009 (ip), vehicle: Klucel (hydroxypropylcellulose) (HPC) 95 % of control | [10] 92 % of control | dose: 100.0 mg/kg/injection, schedule: Q04DX003 (ip), vehicle: Klucel (hydroxypropylcellulose) (HPC) 95 % of control | dose: 200.0 mg/kg/injection, schedule: Q04DX003 (ip), vehicle: Klucel (hydroxypropylcellulose) (HPC) 100 % of control | dose: 400.0 mg/kg/injection, schedule: Q04DX003 (ip), vehicle: Klucel (hydroxypropylcellulose) (HPC) 100 % of control

NC1CCC(CCCC2CCCC2)CC1 (stereo unspecified)
inactive: dose: 25.0 mg/kg/injection, schedule: Q01DX009 (ip), vehicle: Klucel (hydroxypropylcellulose) (HPC) 101 % of control | [10] 110 % of control

CN1CCN(c2nc3cccnc3s2)CC1
inactive: [7] 93 % of control

CCCCCCCCCCCCCCCCOc1ccccc1CNc1cccc(S(=O)(=O)F)c1
inactive: [2] 95 % of control | [4] 95 % of control | dose: 400.0 mg/kg/injection, schedule: Q01DX009 (ip), vehicle: saline with Tween-80 95 % of control

OCCN(CCO)c1cc(OCc2ccccc2)cc(OCc2ccccc2)c1
inactive: dose: 6.25 mg/kg/injection, schedule: Q01DX009 (ip), vehicle: water 103 % of control | dose: 12.5 mg/kg/injection, schedule: Q01DX009 (ip), vehicle: water 99 % of control | dose: 25.0 mg/kg/injection, schedule: Q01DX009 (ip), vehicle: water 91 % of control and 103 % of control | dose: 50.0 mg/kg/injection, schedule: Q01DX009 (ip), vehicle: water 100 % of control | dose: 50.0 mg/kg/injection, schedule: Q04DX003 (ip), vehicle: water 100 % of control | dose: 100.0 mg/kg/injection, schedule: Q04DX003 (ip), vehicle: water 100 % of control | dose: 200.0 mg/kg/injection, schedule: Q04DX003 (ip), vehicle: water 95 % of control | dose: 400.0 mg/kg/injection, schedule: Q04DX003 (ip), vehicle: water 100 % of control

O=C1C2CCCC1C(c1ccccc1)C=C2c1ccc(O)cc1 (stereo unspecified)
inactive: [3] 104 % of control | [5] 104 % of control | [6] 114 % of control

NCCS(=O)(=O)O
inactive: [13] 90 % of control and 100 % of control | dose: 17.5 mg/kg/injection, schedule: Q01DX009 (ip), vehicle: saline 123 % of control | dose: 25.0 mg/kg/injection, schedule: Q01DX009 (ip), vehicle: saline 110 % of control | dose: 35.0 mg/kg/injection, schedule: Q01DX009 (ip), vehicle: saline 123 % of control | dose: 50.0 mg/kg/injection, schedule: Q01DX009 (ip), vehicle: saline 100 % of control (2×) and 113 % of control | dose: 70.0 mg/kg/injection, schedule: Q01DX009 (ip), vehicle: saline 107 % of control | dose: 100.0 mg/kg/injection, schedule: Q01DX009 (ip), vehicle: saline 86 % of control and 94 % of control | dose: 200.0 mg/kg/injection, schedule: Q01DX009 (ip), vehicle: saline 100 % of control | dose: 400.0 mg/kg/injection, schedule: Q01DX009 (ip), vehicle: saline 95 % of control and 105 % of control

FCc1nc2nc(Cl)c(Cl)nc2[nH]1
inactive: dose: 1.0 mg/kg/injection, schedule: Q01DX009 (ip), vehicle: saline 96 % of control | dose: 2.0 mg/kg/injection, schedule: Q01DX009 (ip), vehicle: saline 99 % of control and 100 % of control | dose: 4.0 mg/kg/injection, schedule: Q01DX009 (ip), vehicle: saline 90 % of control and 105 % of control | dose: 8.0 mg/kg/injection, schedule: Q01DX009 (ip), vehicle: saline 99 % of control | dose: 16.0 mg/kg/injection, schedule: Q01DX009 (ip), vehicle: saline 100 % of control | [9] 104 % of control | [7] 101 % of control

COc1cc2c(cc1O)C(=O)CCCC2
inactive: [14] 97 % of control | [1] 101 % of control and 120 % of control | [11] 103 % of control | [2] 97 % of control | [3] 100 % of control | [12] 103 % of control | [5] 104 % of control | dose: 400.0 mg/kg/injection, schedule: Q01DX009 (ip), vehicle: Klucel (hydroxypropylcellulose) (HPC) 103 % of control | [6] 95 % of control

CCCCC(CC)(CC(=O)O)CC(=O)O
inactive: dose: 40.0 mg/kg/injection, schedule: Q01DX010 (ip), vehicle: water 118 % of control

Cn1c(=O)c2c(nc(CCCCc3nc4c(c(=O)n(C)c(=O)n4C)n3C)n2C)n(C)c1=O
inactive: [2] 91 % of control | [4] 88 % of control

Clc1ccc(CBr)c2ccccc12
inactive: dose: 12.5 mg/kg/injection, schedule: Q01DX009 (ip), vehicle: saline with Tween-80 108 % of control | [14] 106 % of control | [1] 110 % of control

CCOC1CCC(C(C)=O)C(C#N)(C#N)C1(C#N)C#N (stereo unspecified)
inactive: dose: 6.25 mg/kg/injection, schedule: Q01DX001 (ip), vehicle: saline with Tween-80 108 % of control | dose: 12.5 mg/kg/injection, schedule: Q01DX001 (ip), vehicle: saline with Tween-80 123 % of control | dose: 25.0 mg/kg/injection, schedule: Q01DX001 (ip), vehicle: saline with Tween-80 110 % of control and 119 % of control | dose: 50.0 mg/kg/injection, schedule: Q01DX001 (ip), vehicle: saline with Tween-80 124 % of control

Cc1nnc2ccnn2c1C
inactive: dose: 1.56 mg/kg/injection, schedule: Q01DX009 (ip), vehicle: saline 108 % of control | dose: 3.13 mg/kg/injection, schedule: Q01DX009 (ip), vehicle: saline 102 % of control | dose: 6.25 mg/kg/injection, schedule: Q01DX009 (ip), vehicle: saline 108 % of control | [13] 100 % of control
